Experimental data taken from article PMC1660542, “Structure-based discovery of inhibitors of the YycG histidine kinase: New chemical leads to combat Staphylococcus epidermidis infections” (BMC Microbiology, 2006).
Converted amounts (≈) assume the structure as drawn. Like-named read-outs stand apart in the source and are kept apart here.

Experiments:
S. aureus ATCC29213 = test: MIC assay (broth dilution in tubes, CLSI); assay type: cell-based, Staphylococcus aureus; settings: for MIC: Staphylococcus aureus
Description: (§1) Staphylococcus epidermidis ATCC12228 and RP62A strains were purchased from the American Type Culture Collection (ATCC, Manassas, USA). Staphylococcus aureus ATCC29213, Escherichia coli ATCC25922 and Pseudomonas aeruginosa ATCC27853 were kindly provided by Dr. Bijie Hu at Zhongshan Hospital (Shanghai, China). S. epidermidis strains se527, se886, se847, seG203, Streptococcus pyogenes strain 144, and Streptococcus mutans strain 128 were all clinical isolates from Zhongshan Hospital and Huashan Hospital (Shanghai, China). If not stated otherwise, S. epidermidis and S. aureus strains were grown at 37°C in tryptic soy broth (TSB, Oxoid) containing 0.25% glucose, E. coli and P. aeruginosa strains were grown at 37°C in Luria-Bertani (LB, Oxoid).
(§2) MIC assays for the antibacterial activities of the compounds were performed according to the broth micro-dilution (in tubes) method of the Clinical and Laboratory Standards Institute (CLSI) of America. The Minimal Bactericidal Concentration (MBC) was obtained by subculturing 100 μl from each negative (no visible bacterial growth) tube from the MIC assay, onto substance-free Mueller-Hinton agar plates. The plates were incubated at 37°C for 24 hours, and the MBC was defined as the lowest concentration of substance which produced subcultures growing no more than five colonies on each plate.

S. epidermidis RP62A [1] = test: MIC assay (broth dilution in tubes, CLSI); assay type: cell-based; settings: Staphylococcus epidermidis, read-out: Minimal inhibitory concentration (MIC)
Description: as §1, §2

S. mutans 128 = test: MIC assay (broth dilution in tubes, CLSI); assay type: cell-based, Streptococcus mutans; settings: for MIC: Streptococcus mutans, S. mutans 128, read-out: Minimal inhibitory concentration (MIC)
Description: as §1, §2

SrrB' = test: Inhibition of SrrB' autophosphorylation (Kinase-Glo); assay type: biochemical, S. epidermidis; settings: compound 50 μM, 4 μg protein, 3 μM ATP
S. epidermidis ATCC12228 [2] = test: MIC assay (broth dilution in tubes, CLSI); assay type: cell-based, Staphylococcus epidermidis; settings: Staphylococcus epidermidis
Description: as §1, §2

[3] = Erythrocyte hemolysis assay; assay type: cell-based, human; settings: human, 1 hour, 37°C;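 on hemolysis: compounds tested at their MIC and at 4× MIC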
Procedure: (§3) Cytotoxicity of the antibacterial compounds on cultured Vero cell was measured by using the Cell Proliferation Kit I (MTT) (Roche, Indianapolis, USA) according to the manufacturer's protocol. Addition of DMSO (1%) in the medium produced a slight cytotoxicity on Vero cell, which could easily be corrected for. Each assay was performed in quadruplicate and repeated three times. The results were converted to percentage of the control (cells only treated with 1% DMSO) and CC50 (concentrations that produce a 50% cytotoxicity effect on Vero cell) was calculated by the Origin v7.0 software (OriginLab, Northampton, USA). Hemolytic activities of the compounds were determined by using healthy human erythrocytes. The erythrocytes were washed three times in sterile saline and resuspended to 5% prior to the assay. […] Cells without compound treatment and cells with 1% Triton-100 treatment were used as 0% and 100% hemolysis controls, respectively. The cell suspensions were incubated for 1 hour at 37°C and centrifuged at 1000×g for 10 min. Volumes of 100 μl supernatants were transferred to another sterile plate and hemoglobin release from the cells was determined at 570 nm. […] The hemolysis assays were repeated twice.

[4] = tested on: healthy human erythrocytes; test: Erythrocyte hemolysis assay; assay type: cell-based;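 on hemolysis: compounds tested at their MIC and at 4× MIC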
Procedure: as §3

S. pyogenes 144 = test: MIC assay (broth dilution in tubes, CLSI); assay type: cell-based, Streptococcus pyogenes; settings: for MIC: Streptococcus pyogenes, S. pyogenes 144, read-out: Minimal inhibitory concentration (MIC)
Description: as §1, §2

YycG' protein [5] = target: T1, YycG' protein (Staphylococcus epidermidis, UniProt Q8CU87); test: Inhibition of YycG' ATPase activity / autophosphorylation (Kinase-Glo Luminescent Kinase Assay); assay type: biochemical; settings: for inhibition at 50 µM: read-out: Inhibition of YycG' phosphorylation (decrease of ATPase activity)
T1 construct: of YycG (370aa to 610aa) was amplified by PCR; His-tag (pET28a) (N); made in house; host or cells: E. coli BL21 (pET28a, pETYycG')
T1 sequence (Q8CU87 370-610): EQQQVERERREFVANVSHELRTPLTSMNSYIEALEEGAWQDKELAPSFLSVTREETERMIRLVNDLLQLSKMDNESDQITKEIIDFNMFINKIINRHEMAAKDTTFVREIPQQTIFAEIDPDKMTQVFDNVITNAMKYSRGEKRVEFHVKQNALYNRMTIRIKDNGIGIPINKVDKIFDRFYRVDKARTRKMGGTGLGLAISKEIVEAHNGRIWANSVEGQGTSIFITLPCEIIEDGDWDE
Procedure: The inhibitory activities of the compounds for the ATPase activity of the YycG' protein was measured using the Kinase-Glo™ Luminescent Kinase Assay (Promega, Madison, USA). Briefly, 4 μg YycG' protein was pre-incubated with a series of dilution of compounds in the reaction buffer (40 mM Tris [pH 7.5], 20 mM MgCl2, and 0.1 mg/ml BSA), at 25°C for 30 min. Then 3 μM ATP was added for another incubation of 30 min at 25°C, and Kinase-Glo™ Reagent was added to detect the rest amount of ATP, as recorded from luminescence measurements (RLU). In parallel, theYycG' protein with no addition of compounds was used as the control. The rate of inhibiting protein phosphorylation (Rp) by the compounds was calculated from equation 1:
Rp=RLU(YycG^′+compound+ATP+Reagent)−RLU(YycG^′+ATP+Reagent)/RLU(ATP+Reagent)−RLU(YycG^′+ATP+Reagent)×100% (1) MathType@MTEF@5@5@+=feaafiart1ev1aaatCvAUfKttLearuWrP9MDH5MBPbIqV92AaeXatLxBI9gBaebbnrfifHhDYfgasaacH8akY=wiFfYdH8Gipec8Eeeu0xXdbba9frFj0=OqFfea0dXdd9vqai=hGuQ8kuc9pgc9s8qqaq=dirpe0xb9q8qiLsFr0=vr0=vr0dc8meaabaqaciaacaGaaeqabaqabeGadaaakeaacqqGsbGudaWgaaWcbaGaeeiCaahabeaakiabg2da9maalaaabaGaeeOuaiLaeeitaWKaeeyvauLaeiikaGIaeeywaKLaeeyEaKNaee4yamMafe4raCKbauaacqGHRaWkcqqGJbWycqqGVbWBcqqGTbqBcqqGWbaCcqqGVbWBcqqG1bqDcqqGUbGBcqqGKbazcqGHRaWkcqqGbbqqcqqGubavcqqGqbaucqGHRaWkcqqGsbGucqqGLbqzcqqGHbqycqqGNbWzcqqGLbqzcqqGUbGBcqqG0baDcqGGPaqkcqGHsislcqqGsbGucqqGmbatcqqGvbqvcqGGOaakcqqGzbqwcqqG5bqEcqqGJbWycuqGhbWrgaqbaiabgUcaRiabbgeabjabbsfaujabbcfaqjabgUcaRiabbkfasjabbwgaLjabbggaHjabbEgaNjabbwgaLjabb6gaUjabbsha0jabcMcaPaqaaiabbkfasjabbYeamjabbwfavjabcIcaOiabbgeabjabbsfaujabbcfaqjabgUcaRiabbkfasjabbwgaLjabbggaHjabbEgaNjabbwgaLjabb6gaUjabbsha0jabcMcaPiabgkHiTiabbkfasjabbYeamjabbwfavjabcIcaOiabbMfazjabbMha5jabbogaJjqbbEeahzaafaGaey4kaSIaeeyqaeKaeeivaqLaeeiuaaLaey4kaSIaeeOuaiLaeeyzauMaeeyyaeMaee4zaCMaeeyzauMaeeOBa4MaeeiDaqNaeiykaKcaaiabgEna0kabigdaXiabicdaWiabicdaWiabcwcaLiaaxMaacaWLjaWaaeWaaeaacqaIXaqmaiaawIcacaGLPaaaaaa@A46C@
IC50 (the concentration of inhibition of 50% YycG' protein autophosphorylation) was obtained by using the Origin v7.0 software (OriginLab, Northampton, USA).

S. epidermidis RP62A [6] = test: Minimal bactericidal concentration (MBC) assay; assay type: cell-based; settings: Staphylococcus epidermidis; S. epidermidis RP62A; read-out: Minimal bactericidal concentration (MBC)
Procedure: as §2

S. epidermidis ATCC12228 [7] = test: Minimal bactericidal concentration (MBC) assay; assay type: cell-based; settings: Staphylococcus epidermidis
Procedure: as §2

Vero cell = test: Cytotoxicity on Vero cell (MTT, Cell Proliferation Kit I); assay type: cell-based, African Green-monkey; settings: highest concentration tested 200 μM
Procedure: as §3

[8] = as above; assay type: cell-based, African Green-monkey; settings: African green monkey, highest concentration tested 200 μM
Procedure: as §3

YycG' protein [9] = target: T1, YycG' protein; test: Compound-YycG' protein binding assay (SPR, Biacore 3000); settings: SPR
Description: The YycG' fragment containing the cytoplasmic signal domains (the HATPase_c and HisKA domain, see Figure 1A) of YycG (370aa to 610aa) was amplified by PCR (with the chromosomal DNA of S. epidermidis ATCC12228 as the template, and (5' […] 3') and (5' […] 3') as the primers. Subsequently, the fragment was digested with BamHI and XholI (TAKARA, Japan) and ligated into the corresponding sites of pET28a (Promega, Madison, USA) to obtain pETYycG'. The expressed YycG' protein was purified with the ProBond™ Purification System (Invitrogen, California, USA), according to the manufacturer's protocol.
The in vitro binding affinities of the inhibitor compounds to the YycG' protein was determined using surface plasmon resonance (SPR) biosensor technology on the dual flow cell Biacore 3000 instrument (Biacore AB, Uppsala, Sweden) with a similar method as described in our previous study. Immobilization of the YycG' protein to the hydrophilic carboxymethylated dextran matrix of the sensor chip CM5 (Biacore) was carried out by the standard primary amine coupling reaction. […] The equilibrium constants (KD) evaluating the protein-ligand binding affinity were determined by the steady state or the kinetic state affinity fitting model encoded in the Biacore analysis software.

[10] = S. aureus ATCC29213, read-out: Minimal inhibitory concentration (MIC)
[11] = S. epidermidis RP62A (biofilm-forming strain)
[12] = ATCC12228, Table 2, as tested on S. epidermidis ATCC 12228, read-out: MICs
[13] = S. epidermidis ATCC12228 (non-biofilm-forming strain), read-out: Minimal inhibitory concentration (MIC)
[14] = erythrocytes (5% suspension), at 4 × MIC (number in parenthesis)
[15] = erythrocytes (5% suspension), at MIC for S. epidermidis ATCC12228
[16] = 4 μg YycG' protein, 3 μM ATP, read-out: IC50 for YycG'
[17] = compound 50 μM, 4 μg protein, 3 μM ATP

CCc1ccccc1N=C1SC(=Cc2ccc(OCC(O)O)c(OC)c2)C(=O)N1c1ccccc1CC [Compound 2]
Inhibitory effect against S. aureus (S. aureus ATCC29213): effective | MIC (S. aureus ATCC29213; [10]): 25 µM (≈ 13 µg/mL) | MIC (S. epidermidis RP62A [1]; [11]): 25 µM (≈ 13 µg/mL) | Inhibitory effect against Streptococcus mutans (S. mutans 128): effective | MIC (S. mutans 128): 100 µM (≈ 51.9 µg/mL) | Inhibition of SrrB' phosphorylation (SrrB'): 3% | MIC (S. epidermidis ATCC12228 [2]; [12]): 25 µM (≈ 13 µg/mL) | MIC (S. epidermidis ATCC12228 [2]; [13]): 25 µM (≈ 13 µg/mL) | hemolysis at 1 h [3, 14]: ~6% | hemolysis at 1 h [3, 15]: 2.3% | Hemolysis ([4]; at 4 × MIC (number in parenthesis), 1 hour, 37°C): 6.1% | Hemolytic activity ([4]; at the highest concentration (200 μM)): ~ 16 % of the zero control | Inhibitory effect against Streptococcus pyogenes (S. pyogenes 144): effective | MIC (S. pyogenes 144): 100 µM (≈ 51.9 µg/mL) | IC50 (YycG' protein [5]; [16]): 29 µM | inhibition at 50 µM (YycG' protein [5]; [17]): 61% | MBC (S. epidermidis RP62A [6]): 100 µM (≈ 51.9 µg/mL) | MBC (S. epidermidis ATCC12228 [7]): 100 µM (≈ 51.9 µg/mL)

CC(=O)Nc1ccccc1C(=O)Nc1ccc2cc3ccc(NC(=O)c4ccccc4NC(C)=O)cc3nc2c1 [Compound 3]
Inhibitory effect against S. aureus (S. aureus ATCC29213): inhibited the growth | MIC (S. aureus ATCC29213; [10]): 100 µM (≈ 53.2 µg/mL) | MIC (S. epidermidis RP62A [1]; [11]): 25 µM (≈ 13.3 µg/mL) | MIC (S. mutans 128): > 200 µM | Inhibition of SrrB' phosphorylation (SrrB'): 5% | MIC (S. epidermidis ATCC12228 [2]; [12]): 12.5 µM (≈ 6.64 µg/mL) | MIC (S. epidermidis ATCC12228 [2]; [13]): 12.5 µM (≈ 6.64 µg/mL) | CC50 (Vero cell): 152 µM | CC50 ([8]; Vero cells): < 200 µM | hemolysis at 1 h [3, 14]: 0.5% | hemolysis at 1 h [3, 15]: < 0.1% | Inhibitory effect against Streptococcus pyogenes (S. pyogenes 144): inhibited the growth | MIC (S. pyogenes 144): 25 µM (≈ 13.3 µg/mL) | IC50 (YycG' protein [5]; [16]): 15 µM | inhibition at 50 µM (YycG' protein [5]; [17]): 70% | MBC (S. epidermidis RP62A [6]): 100 µM (≈ 53.2 µg/mL) | MBC (S. epidermidis ATCC12228 [7]): 50 µM (≈ 26.6 µg/mL)

CCOc1cccc(N2C(=O)/C(=C\c3ccc(OCc4ccc(F)cc4)c(Br)c3)C(=O)NC2=S)c1 [Compound 6]
MIC (S. aureus ATCC29213; ATCC29213, read-out: Minimal inhibitory concentration (MIC)): > 200 µM | MIC (S. epidermidis RP62A [1]; RP62A): 100 µM (≈ 55.5 µg/mL) | Binding to the YycG' protein (YycG' protein [9]): only bound very poorly | MIC (S. epidermidis ATCC12228 [2]; ATCC12228, read-out: MICs): 100 µM (≈ 55.5 µg/mL) | MIC (S. epidermidis ATCC12228 [2]; ATCC12228, read-out: Minimal inhibitory concentration (MIC)): 100 µM (≈ 55.5 µg/mL) | CC50 [8]: > 200 µM | hemolysis at 1 h ([3]; at 4 × MIC (number in parenthesis)): 2.3% | hemolysis at 1 h ([3]; at MIC for S. epidermidis ATCC12228): 1.1% | IC50 (YycG' protein [5]): > 200 µM | inhibition at 50 µM (YycG' protein [5]): ~7%
